Assay results published in patent US20080317769A1, “Vaccine Composition Comprising Alpha-Galactosylceramide as an Adjuvant For Intranasal Administration” (priority 2005, published 2008).
“Also recorded” adds a separate entry of the source.

Experiments:
[1] = tested on: P815 tumor cells infected with live PR8 virus; experiment: 51Cr release assay for CTL activity against PR8-infected P815 target cells; type: in vivo; conditions: Balb/c mice; inactivated PR8 with or without αGalCer intranasal; splenocytes, 51Cr-labeled PR8-infected P815 targets, 6 hours
Protocol: To examine the role of αGalCer as an adjuvant of a killed virus, influenza virus A/PR/8/34 (PR8), which was inactivated with formalin, was used as an antigen to examine the anti-virus immune response. Balb/c mice were immunized with indicated amounts (1 μg, 10 μg) of inactivated PR8 alone or together with αGalCer by the intranasal administration twice at two-week intervals. Two weeks after the final immunization, the mice were sacrificed and following experiments were performed.
Single cells, separated from the spleen of the sacrificed mice, were cultured with stimulator cells for 5 days. To obtain stimulator cells, single cells were taken from the spleen of a naïve Balb/c mouse, which was irradiated with γ-ray, resulting in the inactivation of the cells. Then, the inactivated cells were infected with a live PR8 virus. After culturing splenocytes with stimulator cell for five days, effector cells were three-fold diluted serially, followed by further culture with ^51Cr-labeled target cells for 6 hours. Then, the amounts of ^51Cr […] in the culture supernatant were measured. The target cells were prepared by infecting P815 tumor cells (purchased from ATCC) with live PR8 virus and labeled with ^51Cr.

[2] = dose escalation study, 50-4800 μg/m^2; cited from earlier work
EG7 tumor cells = experiment: EG7 tumor challenge after intranasal immunization with OVA and αGalCer; type: in vivo; conditions: C57BL/6 mice, 3×10^6 EG7 cells s.c., day 14
Protocol: To confirm whether αGalCer could be used as a nasal vaccine adjuvant inducing anticancer activity, C57BL/6 mice were immunized with 100 μg of OVA alone or together with αGalCer (0.125, 0.5, 2.0 μg) by the intranasal administration three times at one-week intervals. Two weeks after the final immunization, 3×10^6 EG7 tumor cells were subcutaneously inoculated in the left flank of the immunized mice. On the 14th day of the inoculation, the mice were sacrificed and the palpable tumors were weighed.

[3] = tested on: IFN-γ and IL-4 production; experiment: IFN-γ and IL-4 levels in spleen and CLN, Balb/c mice; type: in vivo
Protocol: It was directly investigated whether α-GalCer nasal vaccine adjuvant skews immune response into Th1 or Th2 immune response. To measure the secretions of cytokines, cells were obtained from spleen and cervical lymph node (CLN) a week after the final immunization. The cells ([…]) were cultured with 500 μg/ml of OVA for 4 days. The secretions of IFN-γ and IL-4 in the culture supernatant were measured by using the mouse IFN-γ and IL-4 OptELA set ELISA kit (BD Pharmigen) according to the manufacturer's instruction.
As described in Example 2, different amounts of αGalCer (0.125, 0.5, 2.0 μg) and OVA were intranasally administered to Balb/c mice (Charles River Laboratories, Oriet Co., Ltd., Korea), followed by measurement of the levels of IFN-γ and IL-4 in spleen and CLN.

[4] = tested on: OVA-specific antibody responses; experiment: OVA-specific antibody responses by ELISA after intranasal co-administration of OVA and αGalCer, C57BL/6 mice; type: in vivo
Protocol: To investigate the activity of αGalCer as an adjuvant in mucosa, required amount of αGalCer and 100 μg of OVA or 100 μg of OVA alone was diluted with PBS, making 20 μl solution (10 μl/nostril), which was administered to C57BL/6 mice or Balb/c mice (Charles River Laboratories, Orient Co., Ltd., Korea) at 6-8 weeks three times at one-week intervals.
Six to eight-weeks-old […] mice (Charles River Laboratories, Orient Co., Ltd., Korea) were immunized with 100 μg of OVA alone or together with the indicated amounts of αGalCer (0.125, 0.5, 2.0 μg), diluted with PBS and made 20 μl (10 μl/nostril) solution, three times at one-week intervals.
A week after the final immunization, the mice were sacrificed. OVA-specific antibody responses were measured by ELISA. The nasal wash sample was obtained by washing the nasal passage with 100 μl of sterilized PBS (Yamamoto et al., J. Immunol., 161: 4115, 1998), and bronchoalveolar lavage fluid was also obtained by the same manner as described to prepare the lung wash (Chung et al., Immunobiology 206: 408, 2002).
OVA-specific IgG titers in the nasal wash and the lung wash were measured (Chung et al., Immunobiology 206: 408, 2002). To measure IgA, IgG1 and IgG2a titers, two-fold serially diluted samples were used. To determine IgA titer, horseradish-peroxidase-conjugated goat anti-mouse IgA (SIGMA, USA), peroxidase substrate and TMB (SIGMA, USA) were used and 0.5 N—HCL was added thereto to terminate color development. Then, OD450 was measured. To determine IgG, IgG1 and IgG2a titers, alkaline phosphatase-conjugated goat anti-mouse IgG, IgG1 and IgG2a (Southern Biotech, USA) and alkaline phosphatase substrate, p-nitrophenyl phosphate (SIGMA), were used.
To assess the immune bias towards Th1 or Th2 immune responses induced by α-GalCer nasal vaccine adjuvant indirectly, IgG isotypes in serum were determined and the ratios of IgG1 to IgG2a were calculated.

In the case of `CCCCCCCCCCCCCCCCCCCCCCCCCC(=O)N[C@@H](CO[C@H]1O[C@H](CO)[C@H](O)[C@H](O)[C@H]1O)[C@H](O)[C@H](O)CCCCCCCCCCCCCC` [αGalCer, alpha-galactosylceramide], the “target cell-specific lytic activity” value [1] is given as “observed only in mice concurrently treated with αGalCer; also recorded: strong lytic activity”, the dose-limiting toxicity [2] is given as “does not cause dose-limiting toxicity” and the “fraction of mice with tumor masses” value (EG7 tumor cells; 0.125 μg αGalCer + 100 μg OVA intranasal) is given as “⅓”. The tumor formation (EG7 tumor cells; 0.5 μg and 2.0 μg αGalCer together with OVA intranasal) was “completely inhibited”, the “IL-4 level in spleen, comparison of αGalCer doses” value ([3]; 0.5 μg of αGalCer intranasally coadministered with OVA) was “highest level of IL-4” and the “production of IFN-γ and IL-4 in spleen and CLN” value ([3]; all groups coimmunized with αGalCer (0.125, 0.5, 2.0 μg) and OVA) was “significant increase”. The “level of mucosal IgA in the lung wash and production of IL-4 in CLN, relation to the amount of αGalCer” value ([3]; αGalCer dose series + OVA intranasal) was “inverse proportion”, the “OVA-specific IgA responses in the nasal wash and the lung wash” value ([4]; 2.0 μg αGalCer + 100 μg OVA intranasal, three times at one-week intervals, vs vehicle alone or OVA alone) was “significantly higher; also recorded: increased” and the “OVA-specific Th2 type IgG1 and Th1 type IgG2a levels in serum” value ([4]; co-administration of αGalCer and OVA intranasal) was “remarkable increase; also recorded: increased”. The “OVA-specific IgG in serum” value ([4]; αGalCer 0.125, 0.5, 2.0 μg + 100 μg OVA intranasal, vs vehicle alone or OVA alone) was “higher levels”.
